In patent US10870647B2, “Imidazopyridine derivative, method for preparing same, and pharmaceutical composition containing same as active ingredient for preventing or treating cancer” (DAEGU-GYEONGBUK MEDICAL INNOVATION FOUNDATION, priority 2016, dated 2020):

Assays:
Test in all cases: Kinase selectivity, scanMAX Kinase assay panel (DiscoverX), % control at 1 uM
Type in all cases: binding
[1] = molecular target: T1, scanMAX Kinase assay panel (Homo sapiens, UniProt Q9UM73, C1156Y); settings: ALK (C1156Y); 1 uM; read-out: Percent Control (%)
T1 construct: purchased DiscoverX
Procedure, shortened: (§1)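 Compounds were tested at 1 uM in DMSO against each enzyme in the panel. Percent control was calculated as (compound − positive control)/(negative control − positive control) × 100, and a compound was scored active on a kinase when this value fell below 35.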

[2] = molecular target: T2, scanMAX Kinase assay panel (Homo sapiens, UniProt Q9P2K8, S808G); settings: GCN2 (Kin.Dom.2, S808G); 1 uM; read-out: Percent Control (%)
T2 construct: purchased DiscoverX
Procedure, shortened: as §1

[3] = molecular target: T3, scanMAX Kinase assay panel (Homo sapiens, UniProt P51817); settings: PRKX; 1 uM; read-out: Percent Control (%)
T3 construct: purchased DiscoverX
T3 sequence (P51817 1-358): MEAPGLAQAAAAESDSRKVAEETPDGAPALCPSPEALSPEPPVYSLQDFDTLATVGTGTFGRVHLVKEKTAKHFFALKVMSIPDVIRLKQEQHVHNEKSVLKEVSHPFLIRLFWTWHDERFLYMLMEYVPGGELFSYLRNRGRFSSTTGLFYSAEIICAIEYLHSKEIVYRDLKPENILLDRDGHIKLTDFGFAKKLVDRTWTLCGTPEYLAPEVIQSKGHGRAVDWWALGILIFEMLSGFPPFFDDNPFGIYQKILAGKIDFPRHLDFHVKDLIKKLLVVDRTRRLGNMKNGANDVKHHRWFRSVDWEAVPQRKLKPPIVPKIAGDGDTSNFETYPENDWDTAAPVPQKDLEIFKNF
Procedure, shortened: as §1

[4] = molecular target: T4, scanMAX Kinase assay panel (Homo sapiens, UniProt O00238); settings: BMPR1B; 1 uM; read-out: Percent Control (%)
T4 construct: purchased DiscoverX
Procedure, shortened: as §1

[5] = molecular target: T5, scanMAX Kinase assay panel (Homo sapiens, UniProt P36888, D835V); settings: FLT3 (D835V); 1 uM; read-out: Percent Control (%)
T5 construct: purchased DiscoverX
T5 sequence (P36888 27-993 D835V): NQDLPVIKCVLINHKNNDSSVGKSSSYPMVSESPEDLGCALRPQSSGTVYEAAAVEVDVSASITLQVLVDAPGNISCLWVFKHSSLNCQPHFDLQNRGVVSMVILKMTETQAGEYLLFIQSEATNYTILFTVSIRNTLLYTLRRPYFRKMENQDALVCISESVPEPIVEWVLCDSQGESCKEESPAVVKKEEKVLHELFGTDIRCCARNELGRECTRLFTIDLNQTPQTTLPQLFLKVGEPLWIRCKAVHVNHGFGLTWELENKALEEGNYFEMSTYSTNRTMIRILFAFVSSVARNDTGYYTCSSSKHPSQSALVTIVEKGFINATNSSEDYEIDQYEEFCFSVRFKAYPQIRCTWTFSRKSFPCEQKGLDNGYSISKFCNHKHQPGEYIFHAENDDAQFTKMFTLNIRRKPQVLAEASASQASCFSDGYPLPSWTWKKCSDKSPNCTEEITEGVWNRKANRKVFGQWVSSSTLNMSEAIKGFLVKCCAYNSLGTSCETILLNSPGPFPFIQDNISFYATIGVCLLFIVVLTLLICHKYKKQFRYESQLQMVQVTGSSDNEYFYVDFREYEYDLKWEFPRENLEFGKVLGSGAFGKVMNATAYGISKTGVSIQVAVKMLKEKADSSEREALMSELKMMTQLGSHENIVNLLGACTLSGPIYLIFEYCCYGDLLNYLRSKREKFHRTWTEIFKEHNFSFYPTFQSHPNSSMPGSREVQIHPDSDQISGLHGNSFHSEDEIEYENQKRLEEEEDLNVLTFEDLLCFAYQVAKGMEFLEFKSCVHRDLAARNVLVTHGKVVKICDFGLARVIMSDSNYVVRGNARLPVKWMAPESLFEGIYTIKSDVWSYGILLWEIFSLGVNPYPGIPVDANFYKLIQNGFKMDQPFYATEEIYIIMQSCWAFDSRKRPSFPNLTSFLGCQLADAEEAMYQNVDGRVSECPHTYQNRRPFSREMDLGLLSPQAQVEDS
Procedure, shortened: as §1

[6] = molecular target: T6, scanMAX Kinase assay panel (Homo sapiens, UniProt Q9Y2I7); settings: PIKFYVE; 1 uM; read-out: Percent Control (%)
T6 construct: purchased DiscoverX
Procedure, shortened: as §1

[7] = molecular target: T7, scanMAX Kinase assay panel (Homo sapiens, UniProt Q13557); settings: CAMK2D; 1 uM; read-out: Percent Control (%)
T7 construct: purchased DiscoverX
Procedure, shortened: as §1

[8] = molecular target: T8, scanMAX Kinase assay panel (Homo sapiens, UniProt Q14289); settings: PYK2; 1 uM; read-out: Percent Control (%)
T8 construct: purchased DiscoverX
Procedure, shortened: as §1

[9] = molecular target: T9, scanMAX Kinase assay panel (Homo sapiens, UniProt P07948); settings: LYN; 1 uM; read-out: Percent Control (%)
T9 construct: purchased DiscoverX
Procedure, shortened: as §1

[10] = molecular target: T10, scanMAX Kinase assay panel (Homo sapiens, UniProt P53355); settings: DAPK1; 1 uM; read-out: Percent Control (%)
T10 construct: purchased DiscoverX
Procedure, shortened: as §1

[11] = molecular target: T11, scanMAX Kinase assay panel (Plasmodium falciparum, UniProt P62344); settings: PFCDPK1 (P. falciparum); 1 uM; read-out: Percent Control (%)
T11 construct: purchased DiscoverX
Procedure, shortened: as §1

[12] = molecular target: T12, scanMAX Kinase assay panel (Homo sapiens, UniProt Q9UM73, L1196M); settings: ALK (L1196M); 1 uM; read-out: Percent Control (%)
T12 construct: purchased DiscoverX
Procedure, shortened: as §1

[13] = molecular target: T13, scanMAX Kinase assay panel (Homo sapiens, UniProt Q16539); settings: p38-alpha; 1 uM; read-out: Percent Control (%)
T13 construct: purchased DiscoverX
Procedure, shortened: as §1

[14] = molecular target: T14, scanMAX Kinase assay panel (Homo sapiens, UniProt P10721, D816V); settings: KIT (D816V); 1 uM; read-out: Percent Control (%)
T14 construct: purchased DiscoverX
Procedure, shortened: as §1

T10 sequence (P53355 whole entry): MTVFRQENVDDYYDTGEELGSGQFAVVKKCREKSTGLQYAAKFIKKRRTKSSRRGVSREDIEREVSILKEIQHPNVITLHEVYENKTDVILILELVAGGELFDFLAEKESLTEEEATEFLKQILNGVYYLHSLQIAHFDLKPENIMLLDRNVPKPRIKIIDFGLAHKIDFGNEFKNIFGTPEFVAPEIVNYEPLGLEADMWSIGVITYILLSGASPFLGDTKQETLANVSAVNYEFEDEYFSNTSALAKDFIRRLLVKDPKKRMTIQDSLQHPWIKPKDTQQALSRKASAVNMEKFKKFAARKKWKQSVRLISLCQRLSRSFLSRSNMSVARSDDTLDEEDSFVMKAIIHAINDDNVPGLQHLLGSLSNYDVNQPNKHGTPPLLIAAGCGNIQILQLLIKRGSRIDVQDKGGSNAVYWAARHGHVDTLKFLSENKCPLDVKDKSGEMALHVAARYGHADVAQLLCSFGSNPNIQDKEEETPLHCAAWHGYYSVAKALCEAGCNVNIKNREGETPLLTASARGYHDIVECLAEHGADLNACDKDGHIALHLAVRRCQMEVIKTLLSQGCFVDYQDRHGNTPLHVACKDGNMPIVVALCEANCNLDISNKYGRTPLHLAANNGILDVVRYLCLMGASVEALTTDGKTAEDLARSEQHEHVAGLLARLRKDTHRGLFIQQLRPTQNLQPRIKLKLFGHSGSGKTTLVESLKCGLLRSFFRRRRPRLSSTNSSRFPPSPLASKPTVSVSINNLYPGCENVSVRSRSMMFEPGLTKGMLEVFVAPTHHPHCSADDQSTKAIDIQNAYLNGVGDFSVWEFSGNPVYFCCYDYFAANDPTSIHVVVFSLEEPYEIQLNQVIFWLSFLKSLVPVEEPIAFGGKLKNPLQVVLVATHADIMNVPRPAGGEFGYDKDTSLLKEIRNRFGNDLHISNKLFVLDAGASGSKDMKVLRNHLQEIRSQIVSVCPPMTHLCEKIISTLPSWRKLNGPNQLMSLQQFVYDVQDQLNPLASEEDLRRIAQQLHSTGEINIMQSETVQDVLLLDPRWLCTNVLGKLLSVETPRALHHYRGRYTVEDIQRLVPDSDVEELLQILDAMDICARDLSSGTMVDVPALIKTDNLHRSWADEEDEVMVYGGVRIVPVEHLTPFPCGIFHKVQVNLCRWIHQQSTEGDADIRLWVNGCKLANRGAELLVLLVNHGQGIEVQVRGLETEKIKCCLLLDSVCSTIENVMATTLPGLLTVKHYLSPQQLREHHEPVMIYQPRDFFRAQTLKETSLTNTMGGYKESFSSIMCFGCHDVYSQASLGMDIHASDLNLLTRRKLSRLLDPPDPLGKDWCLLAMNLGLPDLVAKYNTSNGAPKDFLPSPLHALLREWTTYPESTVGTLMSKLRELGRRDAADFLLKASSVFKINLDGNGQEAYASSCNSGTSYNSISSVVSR
T1 sequence (Q9UM73 19-1620 C1156Y): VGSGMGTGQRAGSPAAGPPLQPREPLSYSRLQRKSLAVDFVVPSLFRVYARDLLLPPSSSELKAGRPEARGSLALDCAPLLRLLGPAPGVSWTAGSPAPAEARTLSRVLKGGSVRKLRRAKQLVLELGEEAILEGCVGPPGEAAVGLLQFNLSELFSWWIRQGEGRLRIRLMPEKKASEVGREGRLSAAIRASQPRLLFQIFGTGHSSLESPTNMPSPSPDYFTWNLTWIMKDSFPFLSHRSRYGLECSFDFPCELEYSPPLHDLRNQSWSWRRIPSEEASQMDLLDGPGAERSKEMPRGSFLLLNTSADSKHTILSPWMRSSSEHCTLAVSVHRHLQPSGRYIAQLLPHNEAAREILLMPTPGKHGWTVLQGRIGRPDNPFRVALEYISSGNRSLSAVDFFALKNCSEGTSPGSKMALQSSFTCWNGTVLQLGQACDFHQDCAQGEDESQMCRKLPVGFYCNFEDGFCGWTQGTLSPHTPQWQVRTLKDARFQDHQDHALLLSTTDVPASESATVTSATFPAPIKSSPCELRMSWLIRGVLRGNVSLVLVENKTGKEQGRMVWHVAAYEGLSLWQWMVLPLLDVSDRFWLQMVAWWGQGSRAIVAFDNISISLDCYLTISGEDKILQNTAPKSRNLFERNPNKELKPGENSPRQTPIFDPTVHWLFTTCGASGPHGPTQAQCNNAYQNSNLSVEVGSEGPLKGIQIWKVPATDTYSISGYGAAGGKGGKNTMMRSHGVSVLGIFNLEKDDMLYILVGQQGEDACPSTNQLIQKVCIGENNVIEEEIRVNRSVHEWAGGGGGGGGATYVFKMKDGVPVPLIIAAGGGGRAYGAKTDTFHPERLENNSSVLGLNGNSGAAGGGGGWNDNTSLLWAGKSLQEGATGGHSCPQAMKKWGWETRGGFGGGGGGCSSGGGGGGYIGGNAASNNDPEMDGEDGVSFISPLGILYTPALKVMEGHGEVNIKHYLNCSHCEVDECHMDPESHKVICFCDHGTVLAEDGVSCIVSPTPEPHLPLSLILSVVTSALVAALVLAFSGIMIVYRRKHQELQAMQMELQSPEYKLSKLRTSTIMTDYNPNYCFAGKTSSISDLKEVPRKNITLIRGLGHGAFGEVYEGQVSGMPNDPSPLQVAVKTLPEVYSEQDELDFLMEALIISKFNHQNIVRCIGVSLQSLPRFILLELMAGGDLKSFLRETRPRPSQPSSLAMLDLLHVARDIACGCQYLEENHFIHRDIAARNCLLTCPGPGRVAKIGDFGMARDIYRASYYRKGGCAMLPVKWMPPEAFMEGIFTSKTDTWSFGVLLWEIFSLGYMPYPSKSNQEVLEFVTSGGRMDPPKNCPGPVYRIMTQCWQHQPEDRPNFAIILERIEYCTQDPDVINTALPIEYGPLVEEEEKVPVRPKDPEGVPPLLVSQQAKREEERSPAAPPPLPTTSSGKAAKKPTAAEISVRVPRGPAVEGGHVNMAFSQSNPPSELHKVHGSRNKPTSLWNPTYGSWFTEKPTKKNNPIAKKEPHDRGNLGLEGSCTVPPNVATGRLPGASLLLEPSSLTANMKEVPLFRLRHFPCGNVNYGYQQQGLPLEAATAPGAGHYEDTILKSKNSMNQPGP
T4 sequence (O00238 14-502): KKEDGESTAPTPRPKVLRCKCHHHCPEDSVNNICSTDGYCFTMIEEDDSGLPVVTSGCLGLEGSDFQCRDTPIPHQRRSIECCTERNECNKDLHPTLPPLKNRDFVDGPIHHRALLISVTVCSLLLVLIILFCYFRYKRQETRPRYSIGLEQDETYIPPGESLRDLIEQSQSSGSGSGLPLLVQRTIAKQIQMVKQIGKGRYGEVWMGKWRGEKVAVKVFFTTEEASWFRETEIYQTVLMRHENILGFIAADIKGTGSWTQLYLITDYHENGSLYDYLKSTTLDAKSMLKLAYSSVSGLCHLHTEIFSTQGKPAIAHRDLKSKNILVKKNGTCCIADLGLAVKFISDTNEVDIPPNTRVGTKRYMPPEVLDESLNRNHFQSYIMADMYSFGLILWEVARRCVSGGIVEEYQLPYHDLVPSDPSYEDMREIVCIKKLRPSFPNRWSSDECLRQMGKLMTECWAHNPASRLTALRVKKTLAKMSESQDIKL
T11 sequence (P62344 whole entry): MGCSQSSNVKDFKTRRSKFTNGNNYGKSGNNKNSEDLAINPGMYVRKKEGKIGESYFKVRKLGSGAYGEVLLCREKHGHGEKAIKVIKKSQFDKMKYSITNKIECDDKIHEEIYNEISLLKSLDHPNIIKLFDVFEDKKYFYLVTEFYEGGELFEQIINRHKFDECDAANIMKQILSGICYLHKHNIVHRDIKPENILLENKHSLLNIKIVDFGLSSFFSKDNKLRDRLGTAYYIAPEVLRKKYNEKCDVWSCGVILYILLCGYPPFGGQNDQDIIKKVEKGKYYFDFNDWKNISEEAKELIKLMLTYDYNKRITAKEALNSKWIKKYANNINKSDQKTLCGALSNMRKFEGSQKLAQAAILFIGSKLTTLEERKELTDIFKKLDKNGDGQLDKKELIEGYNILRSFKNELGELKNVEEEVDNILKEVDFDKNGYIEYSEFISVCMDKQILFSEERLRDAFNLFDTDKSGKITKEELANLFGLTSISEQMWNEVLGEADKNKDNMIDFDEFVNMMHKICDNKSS
T12 sequence (Q9UM73 19-1620 L1196M): as the sequence (Q9UM73 19-1620 C1156Y) above, with Y1138C, L1178M counted along it
T14 sequence (P10721 26-976 D816V): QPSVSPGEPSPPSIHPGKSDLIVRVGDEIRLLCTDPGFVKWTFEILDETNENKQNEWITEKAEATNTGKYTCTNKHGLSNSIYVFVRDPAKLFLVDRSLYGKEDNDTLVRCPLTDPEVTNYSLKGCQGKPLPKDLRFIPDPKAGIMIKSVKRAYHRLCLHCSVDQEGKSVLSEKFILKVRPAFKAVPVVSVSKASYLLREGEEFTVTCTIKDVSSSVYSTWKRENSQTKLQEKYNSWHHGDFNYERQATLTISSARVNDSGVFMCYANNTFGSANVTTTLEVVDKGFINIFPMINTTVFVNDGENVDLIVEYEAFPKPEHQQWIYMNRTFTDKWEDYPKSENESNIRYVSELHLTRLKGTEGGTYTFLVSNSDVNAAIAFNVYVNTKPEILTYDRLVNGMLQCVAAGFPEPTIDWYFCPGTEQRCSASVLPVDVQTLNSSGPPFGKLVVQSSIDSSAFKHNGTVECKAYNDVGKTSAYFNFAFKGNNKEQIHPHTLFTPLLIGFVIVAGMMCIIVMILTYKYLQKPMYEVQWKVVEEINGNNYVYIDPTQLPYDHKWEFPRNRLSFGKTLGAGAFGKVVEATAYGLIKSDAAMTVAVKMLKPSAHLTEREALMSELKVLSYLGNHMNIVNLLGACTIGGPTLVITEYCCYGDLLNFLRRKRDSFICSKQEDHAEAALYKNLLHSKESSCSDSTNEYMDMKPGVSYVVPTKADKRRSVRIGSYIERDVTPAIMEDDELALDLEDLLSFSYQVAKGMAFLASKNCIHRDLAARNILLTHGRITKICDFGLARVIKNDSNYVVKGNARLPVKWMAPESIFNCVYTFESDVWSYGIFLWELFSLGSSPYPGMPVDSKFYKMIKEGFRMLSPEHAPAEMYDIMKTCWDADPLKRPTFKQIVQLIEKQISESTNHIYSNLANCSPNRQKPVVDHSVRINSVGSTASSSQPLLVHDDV

SMILES | remaining binding at 1 µM [1] [%] | remaining binding at 1 µM [2] [%] | remaining binding at 1 µM [3] [%] | remaining binding at 1 µM [4] [%] | remaining binding at 1 µM [5] [%] | remaining binding at 1 µM [6] [%] | remaining binding at 1 µM [7] [%] | remaining binding at 1 µM [8] [%] | remaining binding at 1 µM [9] [%] | remaining binding at 1 µM [10] [%] | remaining binding at 1 µM [11] [%] | remaining binding at 1 µM [12] [%] | remaining binding at 1 µM [13] [%] | remaining binding at 1 µM [14] [%]
Cc1ccc(C(=O)Nc2ccc(CN3CCN(C)CC3)c(C(F)(F)F)c2)cc1C#Cc1cnc2c(Nc3cnn(C)c3)cccn12 [Example 1, 4-methyl-3-((8-((1-methyl-1H-pyrazol-4-yl)amino)imidazo[1,2-a]pyridin-3-yl)ethynyl)-N-(4-((4-methylpiperazin-1-yl)methyl)-3-(trifluoromethyl)phenyl)benzamide] | 76 | 0 | 93 | 99 | 0 | 84 | 82 | 4 | 0 | 87 | 1 | 29 | 0 | 3
Cc1cn(-c2cc(NC(=O)c3ccc(C)c(C#Cc4cnc5c(Nc6cnn(C)c6)cccn45)c3)cc(C(F)(F)F)c2)cn1 [Example 12, 4-methyl-N-(3-(4-methyl-1H-imidazol-1-yl)-5-(trifluoromethyl)phenyl)-3-((8-((1-methyl-1H-pyrazol-4-yl)amino)imidazo[1,2-a]pyridin-3-yl)ethynyl)benzamide] | 100 | 76 | 97 | 100 | 27 | 65 | 78 | 29 | 3 | 80 | 55 | 100 | 7 | 7
Cc1ccc(NC(=O)C2(C(=O)Nc3ccc(F)cc3)CC2)cc1C#Cc1cnc2c(Nc3cnn(C(C)C)c3)cccn12 [Example 78] | 100 | 89 | 78 | 100 | 87 | 91 | 100 | 100 | 84 | 98 | 97 | 100 | 14 | 61
